Drawing on US6984649B1, “Pyridine derivatives” (Bayer Aktiengesellschaft, priority 2000, dated 2006), this text covers IC50 for six compounds.

By IC50 is commonly meant the concentration that inhibits the measured activity by half.

This test has as its system A549 human lung epithelium cell line. As to the kind of experiment: RANTES production in response to TNF-α from A549 cells. Type of test: cell-based. The conditions noted are these: Homo sapiens, A549, A549 cells, 100 ng/ml TNF-α, read-out: Cellular activity grade (A549) (Cellular IC50). The essentials:
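RANTES released into supernatant was measured by DELFIA-type sandwich immunoassay, Eu-labelled detection antibody, 340 nm excitation/615 nm emission, recombinant RANTES standard. Beforehand, cells seeded at 4×10^4/well received test compound (1% DMSO) for 1 h at 37 °C, followed by 24 h TNF-α (100 ng/ml) stimulation.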
As for `Nc1nc(-c2c(O)cccc2OCC2CC2)cc(C2CCCNC2)c1CNC(=S)Nc1ccccc1` (stereo not drawn) [Example 23-15], the IC50 was under 1000 nM. Under `CC(C)OC(=O)N1Cc2c(C3CCCNC3)cc(-c3c(O)cccc3OCC3CC3)nc2NC1=O` (stereo not drawn) [Example 24-05] stands under 1000 nM; under `CC(C)COC(=O)N1Cc2c(C3CCCNC3)cc(-c3c(O)cccc3OCC3CC3)nc2NC1=O` (stereo not drawn) [Example 24-06], under 1000 nM. `CC(C)(C)COC(=O)N1Cc2c(C3CCCNC3)cc(-c3c(O)cccc3OCC3CC3)nc2NC1=O` (stereo not drawn) [Example 24-07]: the IC50 was under 1000 nM. Under `CN(C)C(=O)N1Cc2c(C3CCCNC3)cc(-c3c(O)cccc3OCC3CC3)nc2NC1=O` (stereo not drawn) [Example 24-08] stands under 1000 nM; under `NC(=O)N1Cc2c(C3CCCNC3)cc(-c3c(O)cccc3OCC3CC3)nc2NC1=O` (stereo not drawn) [Example 24-10], under 1000 nM.
